PubChem BioAssay (NCI)
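48-hour exposure; five concentrations; linearly interpolated endpoints. GI50 marks 50% less growth. TGI: total growth inhibition.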

Tests used:
Assay in all cases: NCI-60 cell line screen, 48 h
RPMI-8226 leukemia = tested on: RPMI-8226 leukemia
SK-OV-3 ovarian = tested on: SK-OV-3 ovarian
OVCAR-8 ovarian = tested on: OVCAR-8 ovarian
A498 renal = tested on: A498 renal
HCC-2998 colon = tested on: HCC-2998 colon
NCI-H226 lung = tested on: NCI-H226 lung
T-47D breast = tested on: T-47D breast
CAKI-1 renal = tested on: CAKI-1 renal
CCRF-CEM leukemia = tested on: CCRF-CEM leukemia
HCT-116 colon = tested on: HCT-116 colon
ACHN renal = tested on: ACHN renal
MOLT-4 leukemia = tested on: MOLT-4 leukemia
SNB-75 CNS = tested on: SNB-75 CNS
A549 NSCLC = tested on: A549 NSCLC
MDA-MB-435 = tested on: MDA-MB-435
OVCAR-4 ovarian = tested on: OVCAR-4 ovarian
HT29 colon = tested on: HT29 colon
BT-549 breast = tested on: BT-549 breast
SN12C renal = tested on: SN12C renal
OVCAR-3 ovarian = tested on: OVCAR-3 ovarian
SK-MEL-28 melanoma = tested on: SK-MEL-28 melanoma
MDA-MB-231 breast = tested on: MDA-MB-231 breast
HOP-62 NSCLC = tested on: HOP-62 NSCLC
SF-295 CNS = tested on: SF-295 CNS
DU-145 prostate = tested on: DU-145 prostate
SF-268 CNS = tested on: SF-268 CNS
PC-3 prostate = tested on: PC-3 prostate
SNB-19 CNS = tested on: SNB-19 CNS
LOX IMVI melanoma = tested on: LOX IMVI melanoma
NCI-H460 lung = tested on: NCI-H460 lung
UACC-62 melanoma = tested on: UACC-62 melanoma
U251 CNS = tested on: U251 CNS
HOP-92 NSCLC = tested on: HOP-92 NSCLC
NCI-H23 lung = tested on: NCI-H23 lung
MALME-3M melanoma = tested on: MALME-3M melanoma
M14 melanoma = tested on: M14 melanoma
RXF 393 renal = tested on: RXF 393 renal
EKVX NSCLC = tested on: EKVX NSCLC
IGROV1 ovarian = tested on: IGROV1 ovarian
HCT-15 colon = tested on: HCT-15 colon
KM12 colon = tested on: KM12 colon
SW-620 colon = tested on: SW-620 colon
UO-31 renal = tested on: UO-31 renal
HS 578T breast = tested on: HS 578T breast
TK-10 renal = tested on: TK-10 renal
786-0 renal = tested on: 786-0 renal
NCI-H522 lung = tested on: NCI-H522 lung
OVCAR-5 ovarian = tested on: OVCAR-5 ovarian
MCF7 breast = tested on: MCF7 breast
NCI/ADR-RES ovarian = tested on: NCI/ADR-RES ovarian
K-562 leukemia = tested on: K-562 leukemia
SK-MEL-2 melanoma = tested on: SK-MEL-2 melanoma
COLO 205 colon = tested on: COLO 205 colon
SK-MEL-5 melanoma = tested on: SK-MEL-5 melanoma
UACC-257 melanoma = tested on: UACC-257 melanoma
SF-539 CNS = tested on: SF-539 CNS

Compound: COc1cccc(-c2cc(C(=O)Nc3ccc(/C=C/c4ccc(OC5CCN(C)CC5)cc4)cc3)ccc2OC)c1
- GI50 (RPMI-8226 leukemia): 2.18 µM
- TGI (RPMI-8226 leukemia): 5.15 µM
- GI50 (SK-OV-3 ovarian): 2.1 µM
- TGI (SK-OV-3 ovarian): 5.13 µM
- GI50 (OVCAR-8 ovarian): 1.96 µM
- TGI (OVCAR-8 ovarian): 4.59 µM
- GI50 (A498 renal): 1.39 µM
- TGI (A498 renal): 3.8 µM
- GI50 (HCC-2998 colon): 1.83 µM
- TGI (HCC-2998 colon): 3.32 µM
- GI50 (NCI-H226 lung): 2.07 µM
- TGI (NCI-H226 lung): 5.04 µM
- GI50 (T-47D breast): 1.7 µM
- TGI (T-47D breast): 4.98 µM
- GI50 (CAKI-1 renal): 10.6 µM
- TGI (CAKI-1 renal): 45.6 µM
- GI50 (CCRF-CEM leukemia): 1.93 µM
- TGI (CCRF-CEM leukemia): 5.14 µM

Compound: CCC1(c2ccc(N3C(=O)c4cccc5cc([N+](=O)[O-])cc(c45)C3=O)cc2)CCC(=O)NC1=O (stereo unspecified)
- TGI (HCT-116 colon): 21.6 µM
- TGI (ACHN renal): 43.5 µM
- TGI (MOLT-4 leukemia): > 100 µM
- TGI (SNB-75 CNS): 68 µM
- TGI (A549 NSCLC): > 100 µM
- TGI (RPMI-8226 leukemia): > 100 µM
- TGI (MDA-MB-435): > 100 µM
- TGI (OVCAR-4 ovarian): 42.4 µM
- TGI (SK-OV-3 ovarian): 39.5 µM
- TGI (HT29 colon): > 100 µM
- TGI (OVCAR-8 ovarian): 28 µM
- TGI (BT-549 breast): 38.6 µM
- TGI (SN12C renal): 24.8 µM
- TGI (OVCAR-3 ovarian): 56.5 µM
- TGI (SK-MEL-28 melanoma): 86.8 µM
- TGI (A498 renal): 97.8 µM
- TGI (MDA-MB-231 breast): 21.4 µM
- TGI (HOP-62 NSCLC): 26.9 µM
- TGI (SF-295 CNS): 41.4 µM
- TGI (DU-145 prostate): > 69.2 µM
- TGI (HCC-2998 colon): > 88.6 µM
- TGI (SF-268 CNS): 51.8 µM
- TGI (PC-3 prostate): > 100 µM
- TGI (SNB-19 CNS): > 74.3 µM
- TGI (NCI-H226 lung): 29 µM
- TGI (LOX IMVI melanoma): > 70.6 µM
- TGI (NCI-H460 lung): > 50 µM
- TGI (UACC-62 melanoma): > 100 µM
- TGI (U251 CNS): 23.8 µM
- TGI (HOP-92 NSCLC): 8.8 µM
- TGI (NCI-H23 lung): > 66.2 µM
- TGI (MALME-3M melanoma): 92.2 µM
- TGI (T-47D breast): > 100 µM
- TGI (M14 melanoma): > 100 µM
- TGI (RXF 393 renal): 20.4 µM
- TGI (EKVX NSCLC): > 70.5 µM
- TGI (CAKI-1 renal): 50.9 µM
- TGI (IGROV1 ovarian): 38.6 µM
- TGI (HCT-15 colon): > 100 µM
- TGI (KM12 colon): > 100 µM
- TGI (SW-620 colon): > 100 µM
- TGI (UO-31 renal): 27.7 µM
- TGI (HS 578T breast): 64.4 µM
- TGI (CCRF-CEM leukemia): 35 µM
- TGI (TK-10 renal): > 79.1 µM
- TGI (786-0 renal): 21.6 µM
- TGI (NCI-H522 lung): 35.1 µM
- TGI (OVCAR-5 ovarian): > 100 µM
- TGI (MCF7 breast): > 100 µM
- TGI (NCI/ADR-RES ovarian): 79.8 µM
- TGI (K-562 leukemia): > 100 µM
- TGI (SK-MEL-2 melanoma): > 100 µM
- TGI (COLO 205 colon): > 100 µM
- TGI (SK-MEL-5 melanoma): > 100 µM
- TGI (UACC-257 melanoma): > 100 µM

Compound: CC(C)C[C@@H](N)[C@@H](O)C(=O)N[C@H](C(=O)N[C@H](C(=O)N[C@@H](CC(=O)O)C(=O)O)C(C)C)C(C)C
- GI50 (HCT-116 colon): > 20 µM
- TGI (HCT-116 colon): > 20 µM
- GI50 (ACHN renal): > 20 µM
- TGI (ACHN renal): > 20 µM
- GI50 (MOLT-4 leukemia): > 20 µM
- TGI (MOLT-4 leukemia): > 20 µM
- GI50 (SNB-75 CNS): > 20 µM
- TGI (SNB-75 CNS): > 20 µM
- GI50 (A549 NSCLC): > 20 µM
- TGI (A549 NSCLC): > 20 µM
- GI50 (MDA-MB-435): > 20 µM
- TGI (MDA-MB-435): > 20 µM
- GI50 (OVCAR-4 ovarian): > 20 µM
- TGI (OVCAR-4 ovarian): > 20 µM
- GI50 (SK-OV-3 ovarian): > 20 µM
- TGI (SK-OV-3 ovarian): > 20 µM
- GI50 (HT29 colon): > 20 µM
- TGI (HT29 colon): > 20 µM
- GI50 (OVCAR-8 ovarian): > 20 µM
- TGI (OVCAR-8 ovarian): > 20 µM
- GI50 (BT-549 breast): > 20 µM
- TGI (BT-549 breast): > 20 µM
- GI50 (SN12C renal): > 20 µM
- TGI (SN12C renal): > 20 µM
- GI50 (OVCAR-3 ovarian): > 20 µM
- TGI (OVCAR-3 ovarian): > 20 µM
- GI50 (SK-MEL-28 melanoma): > 20 µM
- TGI (SK-MEL-28 melanoma): > 20 µM
- GI50 (A498 renal): > 20 µM
- TGI (A498 renal): > 20 µM
- GI50 (MDA-MB-231 breast): > 20 µM
- TGI (MDA-MB-231 breast): > 20 µM
- GI50 (HOP-62 NSCLC): > 20 µM
- TGI (HOP-62 NSCLC): > 20 µM
- GI50 (SF-295 CNS): > 20 µM
- TGI (SF-295 CNS): > 20 µM
- GI50 (DU-145 prostate): > 20 µM
- TGI (DU-145 prostate): > 20 µM
- GI50 (HCC-2998 colon): > 20 µM
- TGI (HCC-2998 colon): > 20 µM
- GI50 (SF-268 CNS): > 20 µM
- TGI (SF-268 CNS): > 20 µM
- GI50 (PC-3 prostate): > 20 µM
- TGI (PC-3 prostate): > 20 µM
- GI50 (SNB-19 CNS): > 20 µM
- TGI (SNB-19 CNS): > 20 µM
- GI50 (NCI-H226 lung): > 20 µM
- TGI (NCI-H226 lung): > 20 µM
- GI50 (LOX IMVI melanoma): > 20 µM
- TGI (LOX IMVI melanoma): > 20 µM
- GI50 (NCI-H460 lung): > 20 µM
- TGI (NCI-H460 lung): > 20 µM
- GI50 (UACC-62 melanoma): > 20 µM
- TGI (UACC-62 melanoma): > 20 µM
- GI50 (U251 CNS): > 20 µM
- TGI (U251 CNS): > 20 µM
- GI50 (HOP-92 NSCLC): 10.3 µM
- TGI (HOP-92 NSCLC): > 20 µM
- GI50 (NCI-H23 lung): > 20 µM
- TGI (NCI-H23 lung): > 20 µM
- GI50 (MALME-3M melanoma): > 20 µM
- TGI (MALME-3M melanoma): > 20 µM
- GI50 (T-47D breast): > 20 µM
- TGI (T-47D breast): > 20 µM
- GI50 (M14 melanoma): > 20 µM
- TGI (M14 melanoma): > 20 µM
- GI50 (EKVX NSCLC): > 20 µM
- TGI (EKVX NSCLC): > 20 µM
- GI50 (SF-539 CNS): > 20 µM
- TGI (SF-539 CNS): > 20 µM
- GI50 (CAKI-1 renal): > 20 µM
- TGI (CAKI-1 renal): > 20 µM
- GI50 (IGROV1 ovarian): > 20 µM
- TGI (IGROV1 ovarian): > 20 µM
- GI50 (HCT-15 colon): > 20 µM
- TGI (HCT-15 colon): > 20 µM
- GI50 (KM12 colon): > 20 µM
- TGI (KM12 colon): > 20 µM
- GI50 (SW-620 colon): > 20 µM
- TGI (SW-620 colon): > 20 µM
- GI50 (UO-31 renal): > 20 µM
- TGI (UO-31 renal): > 20 µM
- GI50 (HS 578T breast): > 20 µM
- TGI (HS 578T breast): > 20 µM
- GI50 (CCRF-CEM leukemia): > 20 µM
- TGI (CCRF-CEM leukemia): > 20 µM
- GI50 (TK-10 renal): > 20 µM
- TGI (TK-10 renal): > 20 µM
- GI50 (786-0 renal): > 20 µM
- TGI (786-0 renal): > 20 µM
- GI50 (NCI-H522 lung): > 20 µM
- TGI (NCI-H522 lung): > 20 µM
- GI50 (OVCAR-5 ovarian): > 20 µM
- TGI (OVCAR-5 ovarian): > 20 µM
- GI50 (MCF7 breast): > 20 µM
- TGI (MCF7 breast): > 20 µM
- GI50 (NCI/ADR-RES ovarian): > 20 µM
- TGI (NCI/ADR-RES ovarian): > 20 µM
- GI50 (K-562 leukemia): > 20 µM
- TGI (K-562 leukemia): > 20 µM
- GI50 (SK-MEL-2 melanoma): > 20 µM
- TGI (SK-MEL-2 melanoma): > 20 µM
- GI50 (COLO 205 colon): > 20 µM
- TGI (COLO 205 colon): > 20 µM
- GI50 (SK-MEL-5 melanoma): > 20 µM
- TGI (SK-MEL-5 melanoma): > 20 µM
- GI50 (UACC-257 melanoma): > 20 µM
- TGI (UACC-257 melanoma): > 20 µM
